Data as given in the NIST ThermoML archive (doi:10.1016/j.tca.2015.09.008).
Where “and” joins values, the source holds several entries; their conditions need not be identical. Equal values may be shown once. ± gives the expanded uncertainty stated by the source.

Details: Crystal, Calculated from knudsen effusion weight loss

[I][La]([I])[I] [lanthanum triiodide]
Details | vapor or sublimation pressure
827 K | 4.7e-07 ± 3.5e-07 kPa
845 K | 1.1e-06 ± 6e-07 kPa
862 K | 2.5e-06 ± 1.2e-06 kPa
869 K | 3.5e-06 ± 1.5e-06 kPa
875 K | 4.7e-06 ± 3.5e-06 kPa
884 K | 7.1e-06 ± 3.9e-06 kPa
905 K | 1.7e-05 ± 7e-06 kPa
910 K | 2.2e-05 ± 7e-06 kPa and 8.9e-06 ± 6.2e-06 kPa
921 K | 1.6e-05 ± 1.7e-05 kPa and 3.4e-05 ± 1.7e-05 kPa
937 K | 6.5e-05 ± 2.8e-05 kPa and 4e-05 ± 2.7e-05 kPa
943 K | 8.1e-05 ± 3.4e-05 kPa and 5.4e-05 ± 3.3e-05 kPa
953 K | 0.00012 ± 6.2e-05 kPa and 9.1e-05 ± 6.3e-05 kPa
962 K | 0.00017 ± 6.7e-05 kPa and 0.00014 ± 6.6e-05 kPa
978 K | 0.00031 ± 9.3e-05 kPa and 0.00033 ± 0.00011 kPa
